Data on nine molecules can be found in ChEMBL document CHEMBL5352418, “Molecular networking assisted discovery and combinatorial biosynthesis of new antimicrobial pleuromutilins” (Eur J Med Chem, 2022).

The subject of this test is Mycobacterium tuberculosis variant bovis. In words: Antibacterial activity against Mycobacterium bovis BCG ATCC 35743 constitutive expressing GFP assessed as bacterial growth inhibition at 20 uM by CLSI protocol based broth microdilution method. The settings on record: read-out: GI. The format is functional. For orientation: In broth dilution the organism is exposed to a series of concentrations in liquid medium.

For `C=C[C@]1(C)C[C@@H](OC(C)=O)[C@@]2(C)C3[C@H](O)CC[C@@]3(CC[C@H]2C)[C@@H](C)[C@@H]1O` (some centres undefined), the inhibition of growth at 20 µM was found to be 43%. As for `C=C[C@]1(C)C[C@@H](O)[C@@]2(C)C3[C@H](O)CC[C@@]3(CC[C@H]2C)[C@@H](C)[C@@H]1O` (some centres undefined), the inhibition of growth at 20 µM stood at 36%.

As for `C=C[C@]1(C)C[C@@H](O)[C@@]2(C)C3C(=O)CC[C@@]3(CC[C@H]2C)[C@@H](C)[C@@H]1O` (some centres undefined), the inhibition of growth at 20 µM was found to be 48%. In the case of `C=C[C@]1(C)C[C@@H](OC(=O)CO)[C@@]2(C)C3=CC(=O)C[C@@]3(CC[C@H]2C)[C@@H](C)[C@@H]1O`, the inhibition of growth at 20 µM was 62%.

With `C=C[C@]1(C)C[C@@H](OC(=O)CO)[C@@]2(C)C3C(=O)[C@H](O)CC3(CC[C@H]2C)[C@@H](C)[C@@H]1O` (single isomer, unassigned), the inhibition of growth at 20 µM is 34%. As for `C[C@@H]1CC[C@@]23CCC(=O)C2[C@]1(C)[C@H](OC(=O)CO)C[C@@](C)([C@H](O)CO)[C@@H](O)[C@@H]3C` (some centres undefined), the figure is 20%; as for `C=C[C@]1(C)C[C@@H](OC(=O)CO)[C@@]2(C)C3C(=O)CC[C@@]3(CC[C@H]2C)[C@@H](C)[C@@H]1O` (some centres undefined), 50%. In the case of `C=C[C@]1(C)C[C@@H](OC(C)=O)[C@@]2(C)C3=CC(=O)C[C@@]3([C@H](O)C[C@H]2C)[C@@H](C)[C@@H]1O` it was 34%; in that of `C=C[C@]1(C)C[C@@H](O)[C@@]2(C)C3CCC[C@@]3(CC[C@H]2C)[C@@H](C)C1` (some centres undefined), 24%.
